Measurements as given in US7695933B2, “SM38 nucleic acid molecules” (priority 2000, dated 2010).
Values joined by “and” are separate entries in the source; they are usually repeats but may differ in a detail not shown here. Equal entries are not always repeated. Where two headings read alike, the source gives them in different places.

Assays:
SM38 = test: Enzyme assays and kinetics with purified recombinant soluble SM38; format: biochemical, Schistosoma mansoni; conditions: for Km / Vmax (specific activity) / kcat: 37° C., 10 mM potassium phosphate buffer pH 7.4, SM38 from Pichia pastoris
Description: The enzyme was incubated with NAD^+ (200 μM) in buffer A (1 ml final volume) until the reaction reached 50% completion. The enzyme was eliminated by centrifugation for 10 min at 5000×g on ultrafiltration units (Vivaspin 2, Vivascience). […] The cycling reaction was then allowed to proceed in the same buffer in the presence of 0.8% ethanol, 10 mM nicotinamide, 40 μg/ml BSA, 20 μg/ml diaphorase (treated with charcoal), 20 μg/ml alcohol dehydrogenase, 10 μM FMN and 20 μM resazurin. The increase in resorufin fluorescence (excitation at 544 nm and emission at 590 nm) was measured every minute for 2 h using a fluorescence plate reader (FluoStar from BMG Labtechnologies Inc).
Aliquots were removed at different time points, treated as described above and analyzed by HPLC on a C18 column.
(§1) The transglycosidation of NADP^+ was measured by incubating recombinant soluble SM38 with 1 mM NADP^+ and 20 to 40 mM nicotinic acid at 37° C. for 20 min in a 10 mM potassium phosphate buffer, pH 6.0 or 7.4 (final volume 500 μl). The reaction mixture was analyzed by HPLC on an ion-exchange column (see below). HPLC analysis of the reaction products were performed on aliquots on a C18 column (see below).
The assays were conducted at 37° C. in buffer A in the presence of soluble recombinant enzyme using eight different substrate concentrations. […] Kinetic parameters were determined from the plots of the initial rates as a function of substrate concentration, according to Michaelis-Menten kinetics, using a non-linear regression program (GraphPad, Prism).

bone marrow neutrophils [1] = test: Intracellular calcium measurements by flow cytometry (Fluo-3/Fura Red); format: cell-based, mouse
Description: Purified bone marrow neutrophils were resuspended in cell loading media (HBSS with Ca2^+ and Mg2^++1% FBS+4 mM probenecid) at 1×10^7 cells/ml. The cells were incubated at 37° C. for 30 min with the fluorescent dyes Fluo-3 AM (4 μg/ml) and Fura Red AM (10 μg/ml) (Molecular Probes, Eugene Oreg.) and then washed twice and resuspended in cell loading medium or calcium-free medium at 1×10^6 cells/ml. In some experiments, cells were permeabilized in 5 μM digitonin in calcium-free media. […] The accumulation of [Ca^2+]i in individual cells was assessed by flow cytometry measuring the fluorescence emission of Fluo-3 in the FL-1 channel and Fura-Red in the FL-3 channel. Data was analyzed using FlowJo 3.2 (Tree Star, Inc. San Carlos, Calif.). The relative [Ca2^+]i was expressed as the ratio between Fluo-3 and Fura Red mean fluorescence intensity over time.

Aplysia cyclase = Aplysia cyclase (Aplysia californica, UniProt P29241); conditions: cited from earlier work
Aplysia cyclase, sequence (P29241 25-282): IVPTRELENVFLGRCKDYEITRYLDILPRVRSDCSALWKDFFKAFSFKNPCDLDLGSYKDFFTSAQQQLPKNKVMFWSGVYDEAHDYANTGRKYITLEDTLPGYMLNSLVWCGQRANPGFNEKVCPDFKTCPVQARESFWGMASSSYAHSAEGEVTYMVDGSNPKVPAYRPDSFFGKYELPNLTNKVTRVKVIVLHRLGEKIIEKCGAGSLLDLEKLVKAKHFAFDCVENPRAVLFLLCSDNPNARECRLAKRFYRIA

[2] = tested on: membrane-associated NAD^+ glycohydrolase/NGD^+ cyclase expressed by adult S. mansoni worms; test: NAD+ glycohydrolase / NGD+ cyclase activity of adult worm membrane microsomes
Description: The enzyme was suspended in 10 mM potassium phosphate buffer, pH 7.4 (buffer A) and incubated at 37° C. with substrate (200 μl final volume). At selected times, aliquots (50 μl) were removed and enzyme activity was stopped by adding ice-cold perchloric acid (2% final concentration). After neutralization with 3.5 M K2CO3, precipitated proteins were removed by centrifugation. Product formation was then monitored by HPLC as described below. […] Product formation was then monitored by HPLC on a C18 column as described below.
Product analysis was performed by HPLC on 300×3.9 mm μBondapack C18 column (Waters Assoc., Milford Mass.). […] The elution was performed at a flow rate of 1 ml/min with a non-linear gradient starting with 100% solvent A (water). […] Peaks were identified by comparison with authentic samples and areas obtained from UV recordings were normalized using the molar extinction coefficients of the reaction products.
To prepare membrane fractions from adult S. mansoni worms, 2 g of worms were disrupted at 4° C. with a potter in 10 mM potassium phosphate buffer (pH 7.4) containing 1 mM EDTA and 0.1 mM phenylmethylsulfonyl fluoride (PMSF) as protease inhibitors. The homogenate was centrifuged at 10,000×g for 15 min and the post-mitochondrial supernatant was centrifuged at 100,000×g for 60 min to obtain the membrane microsomal fraction. […]

Mammalian cyclases = conditions: cited from earlier work
bone marrow neutrophils [3] = test: In vitro transwell chemotaxis assay; format: cell-based, mouse; conditions: for ability of neutrophils to chemotax to IL-8: WT neutrophils pre-treated with agent, IL-8 in bottom chamber
Description: Bone marrow neutrophils were purified (95% purity) by positive selection using biotinylated GR-1 (PharMingen) and MACS Streptavidin Microbeads (Miltenyi Biotec, Auburn Calif.). Chemotaxis assays (Falk et al., 1980 J. Immuno. Methods 33:239-247) were performed using 24-well transwell plates with a 3 μm pore size polycarbonate filter (Costar, Cambridge, Mass.). Medium (HBSS+Ca2^++Mg2^+), fMLP (1 μM, Sigma, St. Louis, Mo.), or IL-8 (100 nM, Sigma) was placed in the lower and/or upper chamber in a checkerboard format. 1×10^5 neutrophils were loaded in the upper chamber and the plates were incubated at 37° C. for 45 min. The transmigrated cells were collected from the lower chamber, fixed and counted on the flow cytometer (FACS Calibur, Becton Dickinson, San Jose Calif.). To determine the absolute number of cells in each sample, a standard number of […] size fluorescent microspheres (Polysciences, Inc. Warrington, Pa.) was added to each tube and counted along with the cells. The total number of transmigrated cells=the number of counted neutrophils×total number of beads/beads counted. […]

[4] = Transglycosidation (pyridine base exchange) by cyclase family enzymes; format: biochemical; conditions: SM38
Description: as §1

[5] = other cyclase family members; cited from earlier work

Nc1ncnc2c1ncn2[C@@H]1O[C@H](COP(=O)(O)OP(=O)(O)OCC2OC([n+]3cccc(C(=O)[O-])c3)C(O)C2O)[C@@H](O)[C@H]1OP(=O)(O)O (stereo in doubt) [NAADP^+, nicotinic acid adenine dinucleotide phosphate]
reduction in NAADP+ formation at pH 7.4 compared to pH 6.0 (SM38; transglycosidation of NADP+ with nicotinic acid): 3 fold

ryanodine
[Ca2+]i after stimulation (bone marrow neutrophils [1]; neutrophils permeabilized in calcium-free buffer): small, but reproducible, increase

NC(=O)c1ccc[n+]([C@@H]2O[C@H](COP(=O)([O-])OP(=O)(O)OC[C@H]3O[C@@H](n4cnc5c(N)ncnc54)[C@H](O)[C@@H]3O)[C@@H](O)[C@H]2O)c1 [NAD^+]
Km (SM38): 38.5 ± 6.8 µM | Vmax (specific activity) (SM38): 13.2 µmol/min/mg and 13.2 ± 2.6 µmol/min/mg | kcat (SM38): 6.51 ± 1.28 s⁻¹ | Hydrolysis of NAD^+ (SM38; SM38): yes | Methanolysis of NAD^+ (SM38; SM38): yes | Hydrolysis of NAD^+ (Aplysia cyclase): very low | Methanolysis of NAD^+ (Aplysia cyclase): very low | specific activity of non-treated membrane microsomes ([2]; 14C-labeled NAD+, ADPR production by HPLC): 36 nmol/min/mg protein | Hydrolysis of NAD^+ (Mammalian cyclases): yes | Methanolysis of NAD^+ (Mammalian cyclases): yes

N.N.N.N.N.N.N.N.N.N.N.N.N.N.[Cl-].[Cl-].[Cl-].[Cl-].[Cl-].[Cl-].[O-2].[O-2].[Ru+3].[Ru+3].[Ru+4] [ruthenium red]
block of ryanodine-induced increase in [Ca2+] (bone marrow neutrophils [1]; permeabilized neutrophils, calcium-free buffer): blocked

cyclic GDP-ribose [cGDPR]
Formation of cGDPR (SM38; SM38): yes | Formation of cGDPR (Aplysia cyclase): yes | Formation of cGDPR (Mammalian cyclases): yes

N=c1c2nc(Br)n3c2ncn1C1OC(COP(=O)(O)OP(=O)(O)OCC2OC3C(O)C2O)C(O)C1O (stereo not drawn) [8-Br-cADPR]
ability of neutrophils to chemotax to IL-8 (bone marrow neutrophils [3]): absolutely no effect | release of intracellular calcium and influx of extracellular calcium (bone marrow neutrophils [1]; WT cells preincubated with increasing concentrations, stimulated with fMLP): reduced in a dose-dependent fashion | [Ca2+]i of IL-8 stimulated neutrophils (bone marrow neutrophils [1]; WT or CD38KO neutrophils, IL-8): absolutely no effect | cADPR-induced intracellular calcium release after pre-treatment (bone marrow neutrophils [1]; permeabilized neutrophils, calcium-free buffer, stimulated with cADPR): No calcium release | block of accumulation of intracellular free calcium mediated by thapsigargin (bone marrow neutrophils [1]; thapsigargin-stimulated neutrophils): unable to block

NC(=O)c1ccc[n+]([C@@H]2O[C@H](COP(=O)([O-])OP(=O)(O)OC[C@H]3O[C@@H](n4cnc5c(N)ncnc54)[C@H](OP(=O)(O)O)[C@@H]3O)[C@@H](O)[C@H]2O)c1 [NADP^+]
Km (SM38): 13.7 ± 2.9 µM | Vmax (specific activity) (SM38): 39.2 ± 1.6 µmol/min/mg | kcat (SM38): 19.34 ± 0.79 s⁻¹ | catalytic efficiency (kcat/Km) relative to NAD+ (SM38; NADP+ versus NAD+): 8 fold

NNC(=O)c1ccncc1 [INH, isoniazid]
Sensivity to INH (SM38; SM38): INH-insensitive and no | Sensivity to INH (Mammalian cyclases): yes/no

NC(=O)c1ccc[n+]([C@@H]2O[C@H](COP(=O)([O-])OP(=O)(O)OC[C@H]3O[C@@H](n4cnc5c(N)ncnc54)[C@H](O)[C@@H]3O)[C@@H](O)[C@H]2F)c1 [araF-NAD^+]
IC50 (SM38; SM38, read-out: Inhibition by araF-NAD^+ (IC50)): > 10 µM | IC50 (Aplysia cyclase; read-out: Inhibition by araF-NAD^+ (IC50)): > 10 µM | Inhibition by araF-NAD^+ (Ki) (Mammalian cyclases): Ki nM range

NC(=O)c1ccc[n+]([C@@H]2O[C@H](COP(=O)([O-])OP(=O)(O)OC[C@H]3O[C@@H](n4cnc5c(=O)[nH]c(N)nc54)[C@H](O)[C@@H]3O)[C@@H](O)[C@H]2O)c1 [NGD^+, nicotinamide guanine dinucleotide]
Km (SM38): 23.4 µM | Vmax (specific activity) (SM38): 4.8 µmol/min/mg and 4.8 ± 0.1 µmol/min/mg | kcat (SM38): 2.37 ± 0.05 s⁻¹ | cyclization/hydrolysis ratio (SM38; NGD+ as substrate, cGDPR vs GDPR): approximately 6.0 | cGDPR/GDPR ratio ([2]; membrane microsomes incubated with NGD+): 12

NC(=O)c1ccc[n+]([C@@H]2O[C@H](COP(=O)([O-])OP(=O)(O)OC[C@H]3O[C@@H](n4c(Br)nc5c(N)ncnc54)[C@H](O)[C@@H]3O)[C@@H](O)[C@H]2O)c1 [N(8-Br-A)D^+, nicotinamide 8-bromoadenine dinucleotide]
chemotaxis of CD38KO neutrophils to either fMLP or IL-8 (bone marrow neutrophils [3]; CD38KO neutrophils pre-treated): no effect | ability of neutrophils to chemotax to IL-8 (bone marrow neutrophils [3]): no effect | neutrophil chemotaxis to fMLP (bone marrow neutrophils [3]; WT neutrophils pre-treated, fMLP in bottom chamber): severely reduced | entry of extracellular calcium in fMLP-treated neutrophils (bone marrow neutrophils [1]; WT neutrophils pretreated): inhibited

O=C(O)CN(CCOCCOCCN(CC(=O)O)CC(=O)O)CC(=O)O [EGTA]
ability of neutrophils to chemotax to IL-8 (bone marrow neutrophils [3]): absolutely no effect

B1: SM38: CD38 homologue from the parasitic flatworm Schistosoma mansoni (protein)
chain: RHEVIFHNLLIQIMMNVILFLTLSNIFVFNSAQHQINLLSEIVQSRCTQWKVEHGATNISCSEIWNSFESILLSTHTKSACVMKSGLFDDFVYQLFELEQQQQQRHHTIQTEQYFHSQVMNIIRGMCKRLGVCRSLETTFPGYLFDELNWCNGSLTGNTKYGTVCGCDYKSNVVHAFWQSASAEYARRASGNIFVVLNGSVKAPFNENKTFGKIELPLLKHPRVQQLTVKLVHSLEDVNNRQTCESWSLQELANKLNSVHIPFRCIDDPLEFRHYQCIENPGKQLCQFSASTRSNVETLLILFPLVICLTFYTSMN
Transglycosidation [4]: yes

B2: Aplysia cyclase: invertebrate Aplysia ADP-ribosyl cyclase enzyme (protein)
chain: MSPVAIVACVCLAVTLTRISPSEAIFPTPELQNVFLGRCKDYEITRYLTILPRVKSDCRALWTNFFKAFSFKAPCNLDLGSYKDFFQRAQQTLPKNKVMFWSGVYDEAHDFADDGRKYITLEDTLPGYMLNSLVWCGQRDKPGFNQKVCPDFKDCPVQARESFWGTASSSYAHSAEGDVTYMVDGSNPKVPAYRPDSFFGKYELPNLTNKVTKVKVIVLHQLGQKIIERCGAGSLLDLEMVVKAKKFGFDCVENPKSVLFLLCADNPNARECQLAKRYYRIA
modifications: A. californica
notes: invertebrate Aplysia ADP-ribosyl cyclase enzyme
Transglycosidation [5]: yes
